Results reported in patent US4983740A, “Process for 1,4-dihydropyridine compounds” (Adir et Compagnie, priority 1986, dated 1991).
Counter-ions that a name gives are not always drawn.

Test system: rat aorta
Test: In vitro activity in rat aorta stimulated by potassium ions
Format: cell-based, rat (male Wistar)
Conditions: 1 h; rat aorta rings, KCl 80 mM stimulation, cumulative doses at 60 minutes intervals
Protocol: Determination of the Vitro Activity in Rat Aorta Stimulated by Potassium Ions
This trial was carried out using isolated organs removed from male Wistar rats weighing 300 to 400 g, kept under a water diet 18 hours before sacrificing.
After quickly sacrificing the animal, the aorta (at the level of the arch of the aorta) is removed and dissected into 2 mm-long rings; the endothelium is removed mechanically. After an equilibration period of 1 hour in a physiological solution consisting of (mM): NaCl 112, KCl 5, KH2 PO4 1, MgSO4 1.2, CaCl2 2.5, NaHCO3 25 and glucose 11.5, the preparations are stimulated with a potassium-rich solution. The latter consists of (mM):NaCl 37, KCl 80, KH2 PO4 1, MgSO4 1.2, CaCl2 2.5, NaHCO3 25 and glucose 11.5. This solution has a pH of 7.4 at 37° C.
After 15 minutes of stabilization, the compounds to be tested are then added (sample volume 0.2 ml) at cumulative doses at 60 minutes intervals. From the relaxation values obtained, it is possible to construct a doseresponse curve, leading to the calculation of an IC50 value (expressed in M).

| IC50 | Structure (SMILES) |
| --- | --- |
| 1000 nM | CCOC(=O)C1=C(COCCOCCN)NC(C)=C(C(=O)OC)C1c1ccc(OC)c(OC)c1OC (racemic) [EXAMPLE 3, (4R,S)-2-{[2-(2-Aminoethoxy)ethoxy]methyl}-3-ethoxycarbonyl-5-methoxycarbonyl-6-methyl-4-(2,3,4-trimethoxyphenyl)-1,4-dihydropyridine fumarate] |
| 90 nM | CCOC(=O)C1=C(COCCOCCN)NC(COC)=C(C(=O)OC)C1c1cccc(Cl)c1Cl (racemic) [EXAMPLE 10, (4R,S)-2-{[2-(2-Aminoethoxy)ethoxy]methyl}-4-(2,3-dichlorophenyl)-3-ethoxycarbonyl-5-methoxycarbonyl-6-methoxymethyl-1,4-dihydropyridine] |
| 250 nM | CCOC(=O)C1=C(COCCOCC[N+](C)(C)Cc2ccccc2)NC(C)=C(C(=O)OC)C1c1cccc(Cl)c1Cl (racemic) [EXAMPLE 11, N-Benzyl-7-[(4R,S)-3-ethoxycarbonyl-4-(2,3-dichlorophenyl)-5-methoxycarbonyl-6-methyl-2-(1,4-dihydropyridyl)]-N,N-dimethyl-3,6-dioxaheptanammonium iodide] |
| 120 nM | CCOC(=O)C1=C(C)NC(COCCOCCN)=C(C(=O)OCC)C1c1c(F)c(F)c(F)c(F)c1F (racemic) [EXAMPLE 15, (4R,S)-2-{[2-(2-Aminoethoxy)ethoxy]methyl}-3,5-diethoxycarbonyl-6-methyl-4-pentafluorophenyl-1,4-dihydropyridine] |
| 7.6 nM | CCOC(=O)C1=C(COCCOCCN)NC(C)=C(C(=O)OC)C1c1ccccc1C(F)(F)F (racemic) [EXAMPLE 17, (4R,S)-2-{[2-(2-Aminoethoxy)ethoxy]methyl}-3-ethoxycarbonyl-5-methoxycarbonyl-6-methyl-4-(2-trifluoromethylphenyl)-1,4-dihydropyridine fumarate] |
| 4.7 nM | CCOC(=O)C1=C(COCCOCCN)NC(C)=C(C(=O)OC)C1c1cccc(Cl)c1 (racemic) [EXAMPLE 18, (4R,S)-2-{[2-(2-Aminoethoxy)ethoxy]methyl}-4-(3-chlorophenyl)-3-ethoxycarbonyl-5-methoxycarbonyl-6-methyl-1,4-dihydropyridine tartrate] |
| 4.9 nM | COC(=O)C1=C(C)NC(COCCOCCN)=C(C(=O)OC)C1c1c(F)c(F)c(F)c(F)c1F (racemic) [EXAMPLE 19, (4R,S)-2-{[2-(2-Aminoethoxy)ethoxy]methyl}-3,5-dimethoxycarbonyl-6-methyl-4-pentafluorophenyldihydropyridine tartrate] |
| 26 nM | CCOC(=O)C1=C(C)NC(COCCOCCN)=C(C(=O)OC)C1c1c(F)c(F)c(F)c(F)c1F (racemic) [EXAMPLE 20, (4R,S)-2-{[2-(2-Aminoethoxy)ethoxy]methyl}-5-ethoxycarbonyl-3-methoxycarbonyl-6-methyl-4-pentafluorophenyldihydropyridine tartrate] |
| 20 nM | CCOC(=O)C1=C(COCCOCCN)NC(C)=C(C(=O)OC)C1c1cccc(SC)c1OC (racemic) [EXAMPLE 22] |
| 13 nM | COC(=O)C1=C(C)NC(COCCOCCN)=C(C(=O)OC(C)C)C1c1cccc(Cl)c1Cl (racemic) [EXAMPLE 25, (4R,S)-2-{[2-(2-Aminoethoxy)ethoxy]methyl}-4-(2,3-dichlorophenyl)-3-isopropoxycarbonyl-5-methoxycarbonyl-6-methyl-1,4-dihydropyridine fumarate] |
| 4.4 nM | CCOC(=O)C1=C(COCCCOCCCN)NC(C)=C(C(=O)OC)C1c1cccc(Cl)c1Cl (racemic) [EXAMPLE 27, (4R,S)-2-{[3-(3-Aminopropoxy)propoxy]methyl}-4-(2,3-dichlorophenyl)-3-ethoxycarbonyl-5-methoxycarbonyl-6-methyl-1,4-dihydropyridine fumarate] |
| 9.3 nM | COC(=O)C1=C(C)NC(COCCOCCN)=C(C(=O)OCC(C)C)C1c1cccc(Cl)c1Cl (racemic) [EXAMPLE 28, (4R,S)-2-{[2-(2-Aminoethoxy)ethoxy]methyl}-4-(2,3-dichlorophenyl)-3-isobutyloxycarbonyl-5-methoxycarbonyl-6-methyl-1,4-dihydropyridine fumarate] |
| 170 nM | CCOC(=O)C1=C(COCCOCCN)NC(C)=C(C(=O)OC)C1c1cc(Cl)cc(Cl)c1Cl (racemic) [EXAMPLE 31, (4R,S)-2-{[2-(2-Aminoethoxy)ethoxy]methyl}-3-ethoxycarbonyl-5-methoxycarbonyl-6-methyl-4-(2,3,5-trichlorophenyl)-1,4-dihydropyridine fumarate] |
| 32 nM | CCOC(=O)C1=C(COCCOCCN)NC(C)=C(C(=O)OC)C1c1c(Cl)ccc(Cl)c1Cl (racemic) [EXAMPLE 32, (4R,S,)-2-{[2-(2-Aminoethoxy)ethoxy]methyl}-3-ethoxycarbonyl-5-methoxycarbonyl-6-methyl-4-(2,3,6-trichlorophenyl)-1,4-dihydropyridine fumarate] |
| 77 nM | COC(=O)C1=C(C)NC(COCCOCCN)=C(C(=O)OCCCC(C2CC2)C2CC2)C1c1cccc(Cl)c1Cl (racemic) [EXAMPLE 33, (4R,S)-2-{[2-(2-Aminoethoxy)ethoxy]methyl}-4-(2,3-dichlorophenyl)-3-(4,4-dicyclopropylbutyloxycarbonyl)-5-methoxycarbonyl-6-methyl-1,4-dihydropyridinefumarate] |

Second part, the molecule before the results:

| Structure (SMILES) | IC50 |
| --- | --- |
| COC(=O)C1=C(C)NC(COCCOCCN)=C(C(=O)OCC(C2CC2)C2CC2)C1c1ccccc1Cl (racemic) [EXAMPLE 4, (4R,S)-2-{[2-(2-Aminoethoxy)ethoxy]methyl}-4-(2-chlorophenyl)-3-(2,2-dicyclopropylethoxycarbonyl)-5-methoxycarbonyl-6-methyl-1,4-dihydropyridine fumarate] | 300 nM |
| CCOC(=O)C1=C(COCCOCCN)NC(C)=C(C(=O)OCC(C2CC2)C2CC2)C1c1ccccc1Cl (racemic) [EXAMPLE 9, (4R,S)-2-{[2-(2-Aminoethoxy)ethoxy]methyl}-4-(2-chlorophenyl)-5-(2,2-dicyclopropylethoxycarbonyl)-3-ethoxycarbonyl-6-methyl-1,4-dihydropyridine fumarate] | 3000 nM |
| COC(=O)C1=C(C)NC(CCCCCCCN)=C(C(=O)OCC(C2CC2)C2CC2)C1c1ccccc1Cl (racemic) [EXAMPLE 13, (4R,S)-2-(7-Aminoheptyl)-4-(2-chlorophenyl)-3-(2,2-dicyclopropylethoxycarbonyl)-5-methoxycarbonyl-6-methyl-1,4-dihydropyridine fumerate] | 300 nM |
| CCOC(=O)C1=C(CCCCCN)NC(C)=C(C(=O)OC)C1c1ccccc1Cl (racemic) [EXAMPLE 14, (4R,S)-2-(5-Aminopentyl)-4-(2-chlorphenyl)-3-ethoxycarbonyl-5-methoxycarbonyl-6-methyl-1,4-dihydropyridine citrate] | 40 nM |
| CCCNCCOCCOCC1=C(C(=O)OCC)C(c2c(F)c(F)c(F)c(F)c2F)C(C(=O)OCC)=C(C)N1 (racemic) [EXAMPLE 16, (4R,S)-3,5-Diethoxycarbonyl-6-methyl-4-pentafluorophenyl-2-[{2-[2-(N-propylamino)ethoxy]ethoxy}methyl]-1,4-dihydropyridine oxalate] | 61 nM |
| CCOC(=O)C1=C(COCCOCCNC(=O)C(F)(F)F)NC(C)=C(C(=O)OC)C1c1c(F)c(F)c(F)c(F)c1F (racemic) [EXAMPLE 21, (4R,S)-2-[{2-[2-(N-Trifluoroacetylamino)ethoxy]-ethoxy}methyl]-3-ethoxycarbonyl-5-methoxycarbonyl-6-methyl-4-pentafluorophenyl-1,4-dihydropyridine] | 68 nM |
| COC(=O)C1=C(C)NC(COCCOCCN)=C(C(=O)OCc2ccc([N+](=O)[O-])cc2)C1c1c(F)c(F)c(F)c(F)c1F (racemic) [EXAMPLE 23, (4R,S)-2-{[2-(2-Aminoethoxy)ethoxy]methyl}-3-(4-nitrobenzyloxycarbonyl)-5-methoxy-6-methyl-4-pentafluorophenyl-1,4-dihydropyridine tartrate] | 200 nM |
| CCOC(=O)C1=C(COCCCOCCCN)NC(C)=C(C(=O)OC)C1c1c(F)c(F)c(F)c(F)c1F (racemic) [EXAMPLE 24, (4R,S)-2-{[3-(3-Aminopropoxy)propoxy]methyl}-3-ethoxycarbonyl-5-methoxycarbonyl-4-pentafluorophenyl-1,4-dihydropyridine tartrate] | 0.82 nM |
| COC(=O)C1=C(C)NC(COCCOCCN)=C(C(=O)OC(C)C)C1c1c(F)c(F)c(F)c(F)c1F (racemic) [EXAMPLE 26, (4R,S)-2-{[2-(2-Aminoethoxy)ethoxy]methyl}-3-isopropoxycarbonyl-5-methoxycarbonyl-6-methyl-4-pentafluorophenyl-1,4-dihydropyridine tartrate] | 310 nM |
| CCOC(=O)C1=C(COCCCOCCCN)NC(C)=C(C(=O)OC)C1c1cccc(C(F)(F)F)c1SC (racemic) [EXAMPLE 30, (4R,S)-2-{[3-(3-Aminopropoxy)propoxy]methyl}-3-ethoxycarbonyl-5-methoxycarbonyl-6-methyl-4-(2-methylthio-3-trifluoromethylphenyl)-1,4-dihydropyridine fumarate] | 25 nM |
| CCCNCCOCCOCC1=C(C(=O)OCC)C(c2c(F)c(F)c(F)c(F)c2F)C(C(=O)OC)=C(C)N1 (racemic) [EXAMPLE 34, (4R,S)-3-Ethoxycarbonyl-5-methoxycarbonyl-6-methyl-4-pentafluorophenyl-2-[{2-[2-(N-propylamino)ethoxy]ethoxy}-methyl]-1,4-dihydropyridine fumarate] | 1.1 nM |
